Reference: patent US11753363B2, “13-oxidized ingenol derivative and use thereof” (Tianjin Pharmaceutical Da Ren Tang Group Corp., Ltd. …, priority 2017, dated 2023)
≈ marks a conversion by molar mass, not a printed value.

What was measured:
[1] = tested on: MCF-7 (human breast cancer cells); experiment: Inhibition of proliferation of tumor cell lines (MTT), MCF-7; format: cell-based; conditions: Homo sapiens, MCF7, MCF-7, 72 h, read-out: IC50 value of compound for inhibition of proliferation of tumor cell lines, MCF-7
Description: (§1) In this example, the inhibitory activity of compounds of the present invention against proliferation of seven human tumor cell lines and mouse B16-F10 melanoma cells was tested in vitro, and the IC50 value (50% inhibitory concentration) of compounds against each tumor cell line was calculated.
(§2) The seven human tumor cell lines are: MCF-7 (human breast cancer cells), LOVO (human colon cancer cells), A549 (human lung cancer cells), BGC-823 (human gastric cancer cells), SMMC-7721 (human liver cancer cells), K562 (human leukemia cells), and HeLa (human cervical cancer cells).
(§3) IC50 values of the compounds for A549, BGC-823, LOVO, MCF-7, SMMC-7721, HeLa, and B16-F10 cells were tested. The above cells were routinely cultured in 1640 nutrient solution containing 10% calf serum, with passage for 1 time every 2 days, and the cells in logarithmic growth phase were taken for experiments. After the A549, BGC-823, LOVO, MCF-7, SMMC-7721, HeLa and B16-F10 cells in logarithmic growth phase were subjected to 0.25% trypsin digestion, they were blown into a single cell suspension, and then the cell concentration was adjusted to about 1×10^5·mL^−1 using RPMI 1640 solution containing 10% calf serum. The cells were seeded in a 96-well culture plate at 100 μL per well, and cultured for 24 hours until the cells were attached. K562 cells were taken and centrifuged and diluted into 2×10^5·mL^−1 single cell suspension with RPMI 1640 solution containing 10% calf serum, and inoculated into a 96-well culture plate at 100 μL per well.
(§4) 100 μL of sample solution with different concentrations to be tested were added to the above 96-well plate, each concentration was added to 4 wells in parallel, and the cell control group was added with an equal volume of RPMI 1640 medium containing 10% calf serum to make a reaction volume of 200 μL. After incubating in an incubator at 37° C., 5% CO2 for 72 h, 10 μL of 5 mg·mL^−1 MTT solution was added to each well, and incubated at 37° C. for 4 h. The supernatant was carefully aspirated, 180 μL of DMSO was added to each well followed by shaking, and the absorbance (OD) value was measured at 570 nm on the microplate reader. The inhibition rate was calculated, and regression equation was established with the logarithmic value of the sample concentration and the inhibition rate (IR) to find the IC50 value of the compound against the cells to be tested. IR (%)=(1−OD value of the experimental group/OD value of the cell control group)×100%

B16-F0 mouse melanoma = experiment: Antitumor activity in B16-F0 mouse melanoma model; format: in vivo; conditions: female C57BL/6J mice, intradermal B16 tumor, skin administration once per day for 3 days, 20 μL/mouse, tumor weight on day 19
Description: This Example investigated the antitumor activity of compounds in B16-F0 mouse melanoma model.
In vitro passage of B16-F0 tumor source was inoculated subcutaneously into female C57BL/6J mice, and passage was carried out after tumor formation. After passage, the subcutaneous tumor tissue of the tumor-bearing mice was taken and ground with 3 times amount of physiological saline to form a tumor cell suspension, and 0.2 mL/mouse of which was inoculated subcutaneously into the axilla of forelimb of mice, which were used as the tumor-source mice. Female C57BL/6J mice were taken and their hair in an area of 4 cm^2 on the neck and back was shaven. After anesthesia with diethyl ether, B16 tumor source was inoculated intradermally at 0.05 mL/mouse. After 3 days of inoculation, the skin was continuously administered for 3 days, once per day, 20 μL/mouse each time, and in the test, a solvent group as a negative control group was included. On the 19th day of the experiment, the experiment was terminated. After the mice were euthanized, the intradermally transplanted tumors were completely separated and excised, and the tumor was weighed to calculate the tumor inhibition rate. Calculation formula of tumor inhibition rate: tumor inhibition rate (%)=(Wmodel group−Wadministration group)/Wmodel group×100%
The tumor growths of the experimental group and the solvent control group were compared to evaluate the antitumor activity of each compound, and the compound with P<0.05 was considered to be effective.

[2] = tested on: BGC-823 (human gastric cancer cells); experiment: Inhibition of proliferation of tumor cell lines (MTT), BGC-823; format: cell-based; conditions: Homo sapiens, BGC-823, 72 h, read-out: IC50 value of compound for inhibition of proliferation of tumor cell lines, BGC-823
Description: as §1, §2, §3, §4

[3] = tested on: K562 (human leukemia cells); experiment: Inhibition of proliferation of tumor cell lines (MTT), K562; format: cell-based; conditions: Homo sapiens, K562, 72 h, read-out: IC50 value of compound for inhibition of proliferation of tumor cell lines, K562
Description: as §1, §2, §3, §4

[4] = tested on: neutrophilic granulocytes; experiment: Neutrophil oxidative burst (luminol chemiluminescence); format: cell-based; conditions: Neutrophil, rat neutrophils, (Csample−Ccontrol)/Ccontrol×100%, read-out: Efficiency of compounds in stimulating neutrophil oxidative burst; for activation at 0.1 µg/mL: 0.1 μg/mL; for activation at 3 µg/mL: 3 μg/mL
Description: This example investigated the effect of compound on neutrophil oxidative burst and calculated the efficiency of each compound in stimulating neutrophil oxidative burst.
Blood was taken from the abdominal aorta of rat. The neutrophilic granulocytes were isolated by the operational procedure of the rat peripheral blood neutrophil isolation kit. The neutrophilic granulocytes were re-suspended by Hanks, and were plated in a 96-well white plate at 1×10^5 cells/well, 80 μL/well; 1 mM of Luminol was added at 10 μL/well; 10 μL of the sample was added to each well, and the degree of oxidative burst was evaluated by chemiluminescence. Calculation formula of Efficiency: Efficiency (%)=(Csample−Ccontrol)/Ccontrol×100%

[5] = tested on: mouse B16-F10 melanoma cells; experiment: Inhibition of proliferation of tumor cell lines (MTT), B16-F10; format: cell-based; conditions: Mus musculus, B16-F10, 72 h, read-out: IC50 value of compound for inhibition of proliferation of tumor cell lines, B16-F10
Description: as §1, §3, §4

[6] = tested on: LOVO (human colon cancer cells); experiment: Inhibition of proliferation of tumor cell lines (MTT), LOVO; format: cell-based; conditions: Homo sapiens, 72 h, read-out: IC50 value of compound for inhibition of proliferation of tumor cell lines, LOVO
Description: as §1, §2, §3, §4

[7] = tested on: HeLa (human cervical cancer cells); experiment: Inhibition of proliferation of tumor cell lines (MTT), HeLa; format: cell-based; conditions: Homo sapiens, 72 h, read-out: IC50 value of compound for inhibition of proliferation of tumor cell lines, HeLA
Description: as §1, §2, §3, §4

[8] = tested on: release of IL-8 by human keratinocytes (HaCaT); experiment: Release of IL-8 by human keratinocytes (HaCaT), IL-8 Elisa; format: cell-based; conditions: Homo sapiens, HaCaT, 24 h, (Csample−Ccontrol)/Ccontrol×100%, read-out: Efficiency of compound in stimulating the release of IL-8 by HaCaT cells; for activation at 0.1 µg/mL: 0.1 μg/mL; for activation at 1 µg/mL: 1 μg/mL
Description: This Example investigated the effect of compound on release of IL-8 by human keratinocytes (HaCaT) and calculated the efficiency of each compound in stimulating the release of IL-8 by human keratinocytes (HaCaT).
Hacat cells were cultured in MEM+10% FBS under the conditions of 37° C., 5% CO2, and when the cells reached 80-95% fusion, they were inoculated into a 96-well culture plate (1×10^4 cells/well) at 100 μL/well, and incubated for 18-24 h. The supernatant was discarded and the cells were incubated for 3-6 h in 1% FBS medium. Different concentrations of the sample solution of compound to be tested were added to each well, and the cell control group was added with an equal volume of 1% FBS medium at 10 μL/well, and incubated for 24 h. The supernatant was taken and tested according to the operation sequence of the IL-8 Elisa kit. Calculation formula of Efficiency: Efficiency (%)=(Csample−Ccontrol)/Ccontrol×100%

[9] = tested on: SMMC-7721 (human liver cancer cells); experiment: Inhibition of proliferation of tumor cell lines (MTT), SMMC-7721; format: cell-based; conditions: Homo sapiens, SMMC-7721, 72 h, read-out: IC50 value of compound for inhibition of proliferation of tumor cell lines, SMMC-7721
Description: as §1, §2, §3, §4

[10] = tested on: A549 (human lung cancer cells); experiment: Inhibition of proliferation of tumor cell lines (MTT), A549; format: cell-based; conditions: Homo sapiens, A549, 72 h, read-out: IC50 value of compound for inhibition of proliferation of tumor cell lines, A549
Description: as §1, §2, §3, §4

SMILES | IC50 [1] | Tumor-inhibition rate (B16-F0 mouse melanoma) | IC50 [2] | IC50 [3] | activation at 0.1 µg/mL [4] | IC50 [5] | IC50 [6] | IC50 [7] | activation at 0.1 µg/mL [8] | IC50 [9] | IC50 [10] | activation at 1 µg/mL [8] | activation at 3 µg/mL [4]
CCCCCCCCCCCC(=O)O[C@@]12C[C@@H](C)[C@]34C=C(C)[C@H](OC(=O)C(C)(C)C)[C@@]3(O)[C@H](O)C(CO)=C[C@H](C4=O)[C@@H]1C2(C)C [3-O-trimethylacetyl-13-O-dodecanoyl-ingenol] | 8.79 µg/mL (≈ 13.9 µM) | 47.4% | 6.81 µg/mL (≈ 10.8 µM) | < 0.2 µg/mL | 205% | 7.7 µg/mL (≈ 12.2 µM) | 9.68 µg/mL (≈ 15.3 µM) | 14.2 µg/mL (≈ 22.5 µM) | 83.7% | 15.1 µg/mL (≈ 23.9 µM) | 17.5 µg/mL (≈ 27.7 µM) | – | –
C/C=C(/C)C(=O)O[C@H]1C(C)=C[C@]23C(=O)[C@@H](C=C(CO)[C@@H](O)[C@]12O)[C@@H]1C(C)(C)[C@]1(OC(C)=O)C[C@H]3C [Compound 8, 3-O-angeloyl-13-O-acetyl-ingenol] | > 50 µg/mL | 90.3% | > 100 µg/mL | 0.0065 µg/mL (≈ 0.0133 µM) | – | – | > 50 µg/mL | > 100 µg/mL | – | 96.6 µg/mL (≈ 198 µM) | > 50 µg/mL | 38.3% | –
C/C=C(/C)C(=O)O[C@H]1C(C)=C[C@]23C(=O)[C@@H](C=C(CO)[C@@H](O)[C@]12O)[C@@H]1C(C)(C)[C@]1(OC(=O)CCCCCCCCCCC)C[C@H]3C [Compound 9, 3-O-angeloyl-13-O-dodecanoyl-ingenol] | 10.1 µg/mL (≈ 16.1 µM) | 71.8% | 0.85 µg/mL (≈ 1.35 µM) | 1.87 µg/mL (≈ 2.97 µM) | – | 10.4 µg/mL (≈ 16.5 µM) | 10.1 µg/mL (≈ 16.1 µM) | 12.5 µg/mL (≈ 19.9 µM) | – | 8.86 µg/mL (≈ 14.1 µM) | 10.8 µg/mL (≈ 17.2 µM) | 23.5% | 77%
CCCCCCCCCCCC(=O)O[C@@]12C[C@@H](C)[C@]34C=C(C)[C@H](O)[C@@]3(O)[C@H](O)C(COC(C)=O)=C[C@H](C4=O)[C@@H]1C2(C)C [Compound 12, 20-O-acetyl-13-O-dodecanoyl-ingenol] | 12.7 µg/mL (≈ 21.6 µM) | 40.7% | 10.3 µg/mL (≈ 17.5 µM) | 0.06 µg/mL (≈ 0.102 µM) | – | 14 µg/mL (≈ 23.8 µM) | 6.71 µg/mL (≈ 11.4 µM) | 32.3 µg/mL (≈ 54.9 µM) | – | 12.7 µg/mL (≈ 21.6 µM) | 16 µg/mL (≈ 27.2 µM) | 37% | 88.3%
C/C=C(/C)C(=O)O[C@H]1C(C)=C[C@]23C(=O)[C@@H](C=C(CO)[C@@H](O)[C@]12O)[C@@H]1C(C)(C)[C@]1(OC(=O)CCC)C[C@H]3C [Compound 16, 3-O-angeloyl-13-O-butanoyl-ingenol] | 38.4 µg/mL (≈ 74.3 µM) | 89.6% | 44.1 µg/mL (≈ 85.4 µM) | 4.21 µg/mL (≈ 8.15 µM) | – | 17 µg/mL (≈ 32.9 µM) | 36.9 µg/mL (≈ 71.4 µM) | 61.1 µg/mL (≈ 118 µM) | 84.6% | 43.5 µg/mL (≈ 84.2 µM) | 46.8 µg/mL (≈ 90.6 µM) | – | 80.1%
C/C=C(/C)C(=O)O[C@H]1C(C)=C[C@]23C(=O)[C@@H](C=C(CO)[C@@H](O)[C@]12O)[C@@H]1C(C)(C)[C@]1(OC(=O)CCCCC)C[C@H]3C [Compound 17, 3-O-angeloyl-13-O-hexanoyl-ingenol] | 18.6 µg/mL (≈ 34.1 µM) | 68.8% | 21.7 µg/mL (≈ 39.8 µM) | 2.93 µg/mL (≈ 5.38 µM) | 82.1% | 6.5 µg/mL (≈ 11.9 µM) | 16.9 µg/mL (≈ 31 µM) | 18.6 µg/mL (≈ 34.1 µM) | 121% | 21.1 µg/mL (≈ 38.7 µM) | 21.7 µg/mL (≈ 39.8 µM) | – | –
C/C=C(\C)C(=O)O[C@H]1C(C)=C[C@]23C(=O)[C@@H](C=C(CO)[C@@H](O)[C@]12O)[C@@H]1C(C)(C)[C@]1(OC(=O)CCCCCCCCCCC)C[C@H]3C [Compound 20, 3-O-tigloyl-13-O-dodecanoyl-ingenol] | 6.8 µg/mL (≈ 10.8 µM) | – | 11 µg/mL (≈ 17.5 µM) | 0.81 µg/mL (≈ 1.29 µM) | – | 3.33 µg/mL (≈ 5.3 µM) | 9.91 µg/mL (≈ 15.8 µM) | 7.45 µg/mL (≈ 11.8 µM) | 109% | 18.4 µg/mL (≈ 29.3 µM) | 13.1 µg/mL (≈ 20.8 µM) | – | 43.8%
